A word on the IC50: it is the concentration needed to halve the response being measured. Higher therefore signals a need for much substance.

This assay deals with TNFα (Homo sapiens (Human), UniProt P01375). The assay can be described thus: TNF induced HEK-Blue assay. The class given is cell-based. Conditions: TNFα 0.5 ng/ml; HEK-Blue-CD40L cells, NF-kB-driven secreted alkaline phosphatase reporter; 18 h. As for the experimental part: TNF or CD40L-Induced HEK-Blue Assay
TNFα, sequence (P01375 77-233): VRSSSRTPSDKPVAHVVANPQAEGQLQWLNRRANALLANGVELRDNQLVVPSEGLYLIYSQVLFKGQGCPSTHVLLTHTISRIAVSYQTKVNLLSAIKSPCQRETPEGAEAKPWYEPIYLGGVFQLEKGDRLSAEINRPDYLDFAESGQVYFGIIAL
Test compounds serially diluted in DMSO were plated in an assay plate (LABCYTE, Cat. # LP-0200) at final concentrations ranging from 0.004 μM to 25 μM. TNFα (final concentration 0.5 ng/ml) or CD40L (final concentration 30 ng/ml) in assay buffer [DMEM, 4.5 g/l glucose (Gibco, Cat. 21063-029), 10% FBS (Sigma, F4135), 1% Penicillin-Streptomycin (Gibco, Cat. 15140-122), 1% Anti-Anti (Gibco, Cat. 15240-112) and 2 mM L-glutamine (Gibco, Cat. 25030-081)] was then added to the assay plate. After a 30 minute pre-incubation at 37° C. and 5% CO2, HEK-Blue™-CD40L cells (INVIVOGEN, Cat. Code hkb-cd40) containing a NF-kB-driven secreted alkaline phosphatase reporter gene were seeded into the assay plate at a density of 20,000 cells per well. This plate was then incubated for 18 h at 37° C. and 5% CO2. Secreted alkaline phosphatase expression was measured using QUANTI-Blue™ (INVIVOGEN, Cat. Code rep-qb1) according to manufacturer's specifications and the assay plate was read on a PerkinElmer Envision at 620 nm.
Inhibition data for the test compound over a range of concentrations was plotted as percentage inhibition of the test compound (100%=maximum inhibition). IC50 values were determined after correcting for background [(sample read−mean of low control)/(mean of high control−mean of low control)] where by the low control is DMSO without stimulation and high control is DMSO with stimulation. The IC50 is defined as the concentration of test compound which produces 50% inhibition and was quantified using the 4 parameter logistic equation to fit the data.
On to `O=C(O)CN1CCN(c2ncc(-c3cc4c(cc3F)nc3n4[C@@H](c4ccccc4OC(F)F)[C@H]4C[C@@H]34)cn2)CC1` [Example 4, 2-(4-(5-((1aR,8R,8aS)-8-(2-(difluoromethoxy)phenyl)-4-fluoro-1,1a,8,8a-tetrahydrobenzo[d]cyclopropa[3,4]pyrrolo[1,2-a]imidazol-5-yl)pyrimidin-2-yl)piperazin-1-yl)acetic acid], for which the IC50 was under 1000 nM.

Compound `NS(=O)(=O)c1ccc(-c2cc3c(cc2F)nc2n3[C@@H](c3ccccc3OC(F)F)[C@H]3C[C@@H]23)cc1` [Example 5, 4-((1aR,8R,8aS)-8-(2-(difluoromethoxy)phenyl)-4-fluoro-1,1a,8,8a-tetrahydrobenzo[d]cyclopropa[3,4]pyrrolo[1,2-a]imidazol-5-yl)benzenesulfonamide] registered an IC50 of under 1000 nM.

As for `Fc1cc2nc3n(c2cc1-c1cnc(N2CCOCC2)nc1)[C@@H](c1ccccc1OC(F)F)[C@H]1C[C@@H]31` [Example 6, 4-(5-((1aR,8R,8aS)-8-(2-(difluoromethoxy)phenyl)-4-fluoro-1,1a,8,8a-tetrahydrobenzo[d]cyclopropa[3,4]pyrrolo[1,2-a]imidazol-5-yl)pyrimidin-2-yl)morpholine], the IC50 was under 1000 nM.

Take `NC(=O)c1ccc(-c2cc3c(cc2F)nc2n3[C@@H](c3ccccc3OC(F)F)[C@H]3C[C@@H]23)cn1` [Example 7, 5-((1aR,8R,8aS)-8-(2-(difluoromethoxy)phenyl)-4-fluoro-1,1a,8,8a-tetrahydrobenzo[d]cyclopropa[3,4]pyrrolo[1,2-a]imidazol-5-yl)picolinamide]: the IC50 was under 1000 nM.

Regarding `CNC(=O)c1ccc(-c2cc3c(cc2F)nc2n3[C@@H](c3ccccc3OC(F)F)[C@H]3C[C@@H]23)cn1` [Example 8, 5-((1aR,8R,8aS)-8-(2-(difluoromethoxy)phenyl)-4-fluoro-1,1a,8,8a-tetrahydrobenzo[d]cyclopropa[3,4]pyrrolo[1,2-a]imidazol-5-yl)-N-methylpicolinamide], the IC50 lay in the range of 1000 to 10000 nM.

The compound `O=C1CN(c2ncc(-c3cc4c(cc3F)nc3n4[C@@H](c4ccccc4OC(F)F)[C@H]4C[C@@H]34)cn2)CCN1` [Example 9, 4-(5-((1aR,8R,8aS)-8-(2-(difluoromethoxy)phenyl)-4-fluoro-1,1a,8,8a-tetrahydrobenzo[d]cyclopropa[3,4]pyrrolo[1,2-a]imidazol-5-yl)pyrimidin-2-yl)piperazin-2-one] displayed an IC50 of under 1000 nM.

The compound `N#Cc1ccc(-c2cc3c(cc2F)nc2n3[C@@H](c3ccccc3OC(F)F)[C@H]3C[C@@H]23)cn1` [Example 10, 5-((1aR,8R,8aS)-8-(2-(difluoromethoxy)phenyl)-4-fluoro-1,1a,8,8a-tetrahydrobenzo[d]cyclopropa[3,4]pyrrolo[1,2-a]imidazol-5-yl)picolinonitrile] gave an IC50 of 1000 to 10000 nM.

In the case of `CC(C)(O)c1ccc(-c2cc3c(cc2F)nc2n3[C@@H](c3ccccc3OC(F)F)[C@H]3C[C@@H]23)cc1` [Example 12, 2-(4-((1aR,8R,8aS)-8-(2-(difluoromethoxy)phenyl)-4-fluoro-1,1a,8,8a-tetrahydrobenzo[d]cyclopropa[3,4]pyrrolo[1,2-a]imidazol-5-yl)phenyl)propan-2-ol], the IC50 was under 1000 nM.

In turn, `CC(C)(O)c1ccc(-c2cc3c(cc2F)nc2n3[C@@H](c3ccccc3OC(F)F)[C@H]3C[C@@H]23)cn1` [Example 13, 2-(5-((1aR,8R,8aS)-8-(2-(difluoromethoxy)phenyl)-4-fluoro-1,1a,8,8a-tetrahydrobenzo[d]cyclopropa[3,4]pyrrolo[1,2-a]imidazol-5-yl)pyridin-2-yl)propan-2-ol] gave an IC50 of under 1000 nM.

On to `OC1(c2ncc(-c3cc4c(cc3F)nc3n4[C@@H](c4ccccc4OC(F)F)[C@H]4C[C@@H]34)cn2)COC1` [Example 14, 3-(5-((1aR,8R,8aS)-8-(2-(difluoromethoxy)phenyl)-4-fluoro-1,1a,8,8a-tetrahydrobenzo[d]cyclopropa[3,4]pyrrolo[1,2-a]imidazol-5-yl)pyrimidin-2-yl)oxetan-3-ol], for which the IC50 was under 1000 nM.

`O=S1(=O)CCN(c2ncc(-c3cc4c(cc3F)nc3n4[C@@H](c4ccccc4OC(F)F)[C@H]4C[C@@H]34)cn2)CC1` [Example 15, 4-(5-((1aR,8R,8aS)-8-(2-(difluoromethoxy)phenyl)-4-fluoro-1,1a,8,8a-tetrahydrobenzo[d]cyclopropa[3,4]pyrrolo[1,2-a]imidazol-5-yl)pyrimidin-2-yl) thiomorpholine 1,1-dioxide] had an IC50 of under 1000 nM.

The compound `CC(C)(O)Cn1cc(-c2cc3c(cc2F)nc2n3[C@@H](c3ccccc3OC(F)F)[C@H]3C[C@@H]23)cn1` [Example 16, 1-(4-((1aR,8R,8aS)-8-(2-(difluoromethoxy)phenyl)-4-fluoro-1,1a,8,8a-tetrahydrobenzo[d]cyclopropa[3,4]pyrrolo[1,2-a]imidazol-5-yl)-1H-pyrazol-1-yl)-2-methylpropan-2-ol] returned an IC50 of 1000 to 10000 nM.

In turn, `CC(C)(C)OC(=O)N1CC=C(c2cc3c(cc2F)nc2n3[C@@H](c3ccccc3OC(F)F)[C@H]3C[C@@H]23)CC1` [Example 17, tert-butyl 4-((1aR,8R,8aS)-8-(2-(difluoromethoxy)phenyl)-4-fluoro-1,1a,8,8a-tetrahydrobenzo[d]cyclopropa[3,4]pyrrolo[1,2-a]imidazol-5-yl)-3,6-dihydropyridine-1(2H)-carboxylate] returned an IC50 of 1000 to 10000 nM.

Take `O=C(O)CN1CCN(c2ncc(-c3cc4c(cc3F)nc3n4[C@H](c4ccccc4OC(F)F)[C@@H]4C[C@H]34)cn2)CC1` [Example 18, 2-(4-(5-((1aS,8S,8aR)-8-(2-(difluoromethoxy)phenyl)-4-fluoro-1,1a,8,8a-tetrahydrobenzo[d]cyclopropa[3,4]pyrrolo[1,2-a]imidazol-5-yl)pyrimidin-2-yl)piperazin-1-yl)acetic acid]: the IC50 was under 1000 nM.

`NC(=O)c1ccc(-c2cc3c(cc2F)nc2n3[C@H](c3ccccc3OC(F)F)[C@@H]3C[C@H]23)cn1` [Example 19, 5-((1aS,8S,8aR)-8-(2-(difluoromethoxy)phenyl)-4-fluoro-1,1a,8,8a-tetrahydrobenzo[d]cyclopropa[3,4]pyrrolo[1,2-a]imidazol-5-yl)picolinamide] showed an IC50 of 1000 to 10000 nM.

`NC(=O)c1ccc(-c2cc3c(cc2F)nc2n3[C@@H](c3ccccc3OC(F)F)[C@@H]3C[C@H]23)cn1` [Example 22, 5-((1aS,8R,8aR)-8-(2-(difluoromethoxy)phenyl)-4-fluoro-1,11a,8,8a-tetrahydrobenzo[d]cyclopropa[3,4]pyrrolo[1,2-a]imidazol-5-yl)picolinamide] came in with an IC50 of under 1000 nM.

`CC(C)(O)c1ncc(-c2cc3c(cc2F)nc2n3[C@@H](c3ccccc3Oc3ccccc3)[C@@H]3C[C@H]23)cn1` [Example 27, 2-(5-((1aS,8R,8aR)-4-fluoro-8-(2-phenoxyphenyl)-1,1a,8,8a-tetrahydrobenzo[d]cyclopropa[3,4]pyrrolo[1,2-a]imidazol-5-yl)pyrimidin-2-yl)propan-2-ol]: the IC50 lay in the range of 1000 to 10000 nM.

For the compound `CC(C)(O)c1ncc(-c2cc3c(cc2F)nc2n3[C@H](c3ccccc3Oc3ccccc3)[C@@H]3C[C@H]23)cn1` [Example 28, 2-(5-((1aS,8S,8aR)-4-fluoro-8-(2-phenoxyphenyl)-1,1a,8,8a-tetrahydrobenzo[d]cyclopropa[3,4]pyrrolo[1,2-a]imidazol-5-yl)pyrimidin-2-yl)propan-2-ol], the IC50 is 1000 to 10000 nM.

For the origin of these results see US10335392B2, “Cyclic compounds useful as modulators of TNF α” (BRISTOL-MYERS SQUIBB COMPANY, priority 2015, dated 2019).
